US7825231B2 (priority 2005, dated 2010)
Entries after “also recorded” stand apart in the source; their conditions may differ.

How the values were obtained:
Format in all cases: in vivo, rat
[1] = tested on: male Sprague-Dawley rats; test: CFA model of inflammatory pain: mechanical allodynia (von Frey hairs); conditions: three days after CFA injury
Protocol: (§1) Mechanical allodynia induced by SNL was determined by assessing the response of paw withdrawal to von Frey hairs of graded tensile strength as described previously with a tactile stimulus producing a 50% likelihood of withdrawal determined using the up-down method(53, 71, 72). Thermal hyperalgesia was determined using a Hargreaves apparatus recording the time to withdrawal from a radiant thermal stimulus positioned directly under the hind paw(73). Parametric statistics, using the general linear model for repeated measures were used to identify significant effects of treatment condition on the behavioral measure of neuropathic pain. The results were examined for a main effect of treatment group. All statistical analyses were performed using the software package, SPSS 13.0 for Windows (SPSS Inc., Chicago, Ill.).
(§2) Inflammatory injury was induced by injection of 150 μL CFA in the left-hind paw of male Sprague-Dawley rats.
Mechanical allodynia was tested using von Frey hair stimulation as described in Example 2. […] The antiallodynic effect of vEM2 was reversed by intrathecal (FIG. 5B) or intraperitoneal (FIG. 5C) administration of Nal-M.

[2] = tested on: male Sprague-Dawley rats; test: CFA model of inflammatory pain: thermal hyperalgesia (Hargreaves apparatus); conditions: three days after CFA injury
Protocol: as §1, §2
Thermal hyperalgesia was tested using a Hargreaves apparatus as in Example 2.

[3] = tested on: male Sprague-Dawley rats; test: CFA model of inflammatory pain: weight bearing (incapacitance analgesia meter); conditions: three days after CFA injury
Protocol: as §2
Weight-bearing ability in the CFA model was measured using an incapacitance analgesia meter. […] The effect of vEM2 was reversed by intrathecal (FIG. 7B) or intraperitoneal (FIG. 7C) administration of Nal-M.

[4] = tested on: rats with SNL; test: Spinal nerve ligation model of neuropathic pain: thermal hyperalgesia (Hargreaves apparatus); conditions: intrathecal
Description: (§3) The spinal nerve ligation model was utilized to produce mechanical allodynia and thermal hyperalgesia, hallmarks of neuropathic pain(41).
(§4) Male Sprague-Dawley rats weighing 225 to 250 g underwent selective L5 SNL with the approval of the University Committee on Use and Care of Animals(53). Under isoflurane anesthesia, an incision was made in the atlanto-occipital membrane, a polyethylene (PE-10) catheter, filled with 0.9% saline, was advanced 8.5 cm caudally to position its tip at the level of the lumbar enlargement. The rostral tip of the catheter was passed subcutaneously, externalized on top of the skull, and sealed with a stainless-steel plug. One week after implantation of the intrathecal catheter, L5 spinal nerve ligation (SNL) was performed. […]
(§5) Mechanical allodynia induced by SNL was determined by assessing the response of paw withdrawal to von Frey hairs of graded tensile strength as described previously with a tactile stimulus producing a 50% likelihood of withdrawal determined using the up-down method(53, 71, 72). Thermal hyperalgesia was determined using a Hargreaves apparatus recording the time to withdrawal from a radiant thermal stimulus positioned directly under the hind paw(73). […]

[5] = tested on: rats with SNL; test: Spinal nerve ligation model of neuropathic pain: mechanical allodynia (von Frey hairs); conditions: intrathecal
Description: as §3, §4, §5

[6] = 10 days after vEM2 in rats with SNL

With `C=CC[N+]1(C)CC[C@]23c4c5ccc(O)c4O[C@H]2C(=O)CC[C@@]3(O)[C@H]1C5` (stereo partly shown) [Nal-M, naloxone-methiodide] the “effect on the antiallodynic effect of vEM2 (mechanical threshold)” value ([1]; intraperitoneal) was “reversed”, the “effect on the antiallodynic effect of vEM2 (mechanical threshold)” value ([1]; intrathecal) was “reversed” and the “effect on the anti-hyperalgesic effect of vEM2 (thermal latency)” value ([2]; intraperitoneal) was “reversed”. For the same compound, the “effect on the anti-hyperalgesic effect of vEM2 (thermal latency)” value ([2]; intrathecal) was “not significantly affected; also recorded: did not significantly counteract”, the “effect on the effect of vEM2 (weight bearing differential)” value ([3]; intraperitoneal) was “reversed” and the “effect on the effect of vEM2 (weight bearing differential)” value ([3]; intrathecal) was “reversed”.

In the case of CTOP, the “effect on the antihyperalgesic effect produced by vEM2” value [4, 6] is reported as “reversed”, the “effect on thermal latency, given alone” value ([4]; normal animals, data not shown) is reported as “did not affect” and the “effect on the antiallodynic effect produced by vEM2” value [5, 6] is reported as “reversed”. For the same compound, the “effect on mechanical threshold, given alone” value ([5]; normal animals, data not shown) was “did not affect”.
